According to PMC8079714 (Nature Communications, 2021):
“And” between values parts separate entries of the source, which are not always exact repeats. Equal entries are not always repeated.

system: N. benthamiana leaves; conditions: in vivo

Row | Substance | sites showing a visible cell death response out of total infiltrated sites
1 | DPIYTPNSGETIDAGAPYTVTW [SGP123-44rec] | 10/10 and 30/30
2 | NPDFNPVNKPTPNEKIPAGSTYKIEWTAPA [VdSNP30rec] | 1/10 and 3/30
3 | TADFDPIFKPEAWQSVAAGQSFQITWDAPA [FsSNP30rec] | 9/10 and 27/30
4 | TAGFDAISVPTNGQVVKVGDVLDITWAPNA [SsSNP30rec] | 9/10 and 10/10 and 28/30
5 | TAGFDAISVPTNGQVVQVGDVLDITWAPNS [BcSNP30rec] | 10/10 and 30/30
6 | TAGFDAVLTPAKDEVVAAGSSYTITWDYSS [VmSNP30rec] | 0/10 and 0/30
7 | TPDFDPIYTPKKDEVVAAGSPLVITWDAPA [CpSNP30rec] | 9/10 and 10/10 and 28/30
8 | TPGFHALVKPVRDEVIPAGKPYTLEWQPGG [MoSNP30rec] | 1/10 and 3/30
9 | VADFDPVLTPTNWEEVSAGKTLEITWQAKP [FvSNP30rec] | 0/10 and 0/30
10 | W44A (FDPIYTPNSGETIDAGAPYTVTA) | 0/5 and 0/15
